# Laboratory results taken from US5852034A, “Benzo(5,6)cycloheptapyridine cyclic ureas and lactams useful as farnesyl protein transferase inhibitors” (Schering Corporation, priority 1997, dated 1998).
# pIC50: −log10 of the molar value.
# Tests used:
# [1] = biological target: farnesyl protein transferase (Homo sapiens, UniProt P49354+P49356); experiment: FPT IC50 (inhibition of farnesyl protein transferase, in vitro enzyme assay); format: biochemical; conditions: procedures described in WO 95/10516
# Protocol: (§1) FPT IC50 (inhibition of farnesyl protein transferase, in vitro enzyme assay), COS Cell IC50 (Cell-Based Assay), GGPT IC50 (inhibition of geranylgeranyl protein transferase, in vitro enzyme assay), Cell Mat Assay, and anti-tumor activity (in vivo anti-tumor studies) are determined by the assay procedures described in WO 95/10516.
# [2] = tested on: Ras processing in COS cells; experiment: COS Cell IC50 (Cell-Based Assay), inhibition of Ras processing; conditions: procedures described in WO 95/10516
# Protocol: as §1
SMILES,pIC50 [1],pIC50 [2]
"O=C1CCCCN1CCC(=O)N1CCC([C@H]2c3ncc(Br)cc3CCc3cc(Cl)cc(Br)c32)CC1 [Example 5, (+)-4-(3,10-Dibromo-8-chloro-6,11-dihydro-5H-benzo[5,6]cyclohepta-[1,2-b]pyridin-11-yl)-1-[1-oxo-3-(2-oxo-1-piperidinyl)propyl]piperidine]",7.72,
"O=C1CCCN1CCCC(=O)N1CCC([C@H]2c3ncc(Br)cc3CCc3cc(Cl)cc(Br)c32)CC1 [Example 3, (+)-4-(3,10-Dibromo-8-chloro-6,11-dihydro-5H-benzo[5,6]cyclohepta-[1,2-b]pyridin-11-yl)-1-[1-oxo-4-(2-oxo-1-pyrrolidinyl)butyl]piperidine]",7.07,
"O=C(CCN1CCCNC1=O)N1CCC([C@H]2c3ncc(Br)cc3CCc3cc(Cl)cc(Br)c32)CC1 [Example 11, (+)-4-(3,10-Dibromo-8-chloro-6,11-dihydro-5H-benzo[5,6]cyclohepta-[1,2-b]pyridin-11-yl)-1-[1-oxo-3-(hexahydo-2-oxo-1-pyrimidinyl)-oxopropyl]piperidine]",7.70,
"O=C(CN1CCCNC1=O)N1CCC([C@H]2c3ncc(Br)cc3CCc3cc(Cl)cc(Br)c32)CC1 [Example 10, (+)-4-(3,10-Dibromo-8-chloro-6,11-dihydro-5H-benzo[5,6]cyclohepta-[1,2-b]pyridin-11-yl)-1-[(hexahydro-2-oxo-1-pyrimidinyl)acetyl]piperidine]",8.49,7.80

# Continued, in another order:
pIC50 [1],SMILES,pIC50 [2]
7.25,"O=C(CCCN1CCCNC1=O)N1CCC([C@H]2c3ncc(Br)cc3CCc3cc(Cl)cc(Br)c32)CC1 [Example 12, (+)-4-(3,10-Dibromo-8-chloro-6,11-dihydro-5H-benzo[5,6]cyclohepta[1,2-b]pyridin-11-yl)-1-[4-(hexahydo-2-oxo-1-pyrimidinyl)oxobutyl]piperidine]",
7.64,"O=C(CN1CCNC1=O)N1CCC([C@H]2c3ncc(Br)cc3CCc3cc(Cl)cc(Br)c32)CC1 [Example 7, (+)-4-(3,10-Dibromo-8-chloro-6,11-dihydro-5H-benzo[5,6]cyclohepta-[1,2-b]pyridin-11-yl)-1-[(2-oxo-1-imidazolidinyl)acetyl]piperidine]",
8.55,"O=C(CN1CCCCC1=O)N1CCC([C@H]2c3ncc(Br)cc3CCc3cc(Cl)cc(Br)c32)CC1 [Example 4, (+)-4-(3,10-Dibromo-8-chloro-6,11-dihydro-5H-benzo[5,6]cyclohepta-[1,2-b]pyridin-11-yl)-1-[(2-oxo-1-piperidinyl)acetyl]piperidine]",
8.40,"O=C(CN1CCCC1=O)N1CCC([C@H]2c3ncc(Br)cc3CCc3cc(Cl)cc(Br)c32)CC1 [Example 1, (+)-4-(3,10-Dibromo-8-chloro-6,11-dihydro-5H-benzo[5,6]cyclohepta-[1,2-b]pyridin-11-yl)-1-[(2-oxo-1-pyrrolidinyl)acetyl]piperidine]",6.30
7.10,"O=C1CCCCN1CCCC(=O)N1CCC([C@H]2c3ncc(Br)cc3CCc3cc(Cl)cc(Br)c32)CC1 [Example 6, (+)-4-(3,10-Dibromo-8-chloro-6,11-dihydro-5H-benzo[5,6]cyclohepta-[1,2-b]pyridin-11-yl)-1-[1-oxo-4-(2-oxo-1-piperidinyl)butyl]piperidine]",
7.80,O=C(CCCN1CCNC1=O)N1CCC([C@H]2c3ncc(Br)cc3CCc3cc(Cl)cc(Br)c32)CC1 [Example 9],
